We go through four molecules from PMC10301432, “Antiplasmodial, Trypanocidal, and Genotoxicity In Vitro Assessment of New Hybrid α,α-Difluorophenylacetamide-statin Derivatives” (Pharmaceuticals, 2023).

The nature of one series: in vitro. It is filed as cell-based. Conditions: mouse. On the procedure: Primary cultures of cardiac cells (CC) were obtained as reported in [50]. The cultures were sustained in Dulbecco’s modified Eagle’s medium (DMEM) supplemented with 10% horse serum, 5% fetal bovine serum (FBS), 2.5 mM CaCl2, 1 mM L-glutamine, and 2% chicken embryo extract. Cell cultures were maintained at 37 °C in an atmosphere of 5% CO2, and assays were run at least three times in triplicate.
Cardiac cell cultures were incubated for 24 h at 37 °C with different concentrations of the compounds (up to 200 µM) diluted in DMEM (without phenol red). Their morphology and spontaneous contractibility were evaluated by light microscopy and then the cellular viability was determined by the PrestoBlue® assay. For this colorimetric bioassay, PrestoBlue® (Invitrogen, Waltham, MA, USA) was added to each well (using a 10:1 medium/dye), the plate was further incubated for 24 h followed by optical density (OD) measurement performed at 570 and 600 nm, as recommended by the manufacturer.

A short description of series [1]: Salmonella/microsome assay, TA98. The settings on record: Salmonella enterica serovar Typhimurium, S. typhimurium TA98 without S9 mix, pH 7.4. On the procedure: Salmonella enterica serovar Typhimurium (S. typhimurium) strains TA97, TA98, TA100, TA104 and TA102 from the authors’ stock were used as described in the mutagenicity assay.
To determine the cytotoxic effects, after 30 min pre-incubation, the assay mixtures were diluted in 0.9% NaCl (w/v) to obtain a suspension containing 2 × 10^2 cells/mL. […] The plates were then incubated at 37 °C for 24 h and the colonies counted. All the experiments were conducted in triplicate and were repeated at least twice. Statistical differences between the groups were analyzed by a two-way ANOVA (p < 0.05) and Tukey’s post hoc test.

A short description of series [2]: Salmonella/microsome assay, TA100. The settings on record: Salmonella enterica serovar Typhimurium, S. typhimurium TA100 without S9 mix, pH 7.4.
A short description of series [3]: Salmonella/microsome assay, TA97. The settings on record: Salmonella enterica serovar Typhimurium, S. typhimurium TA97 without S9 mix, pH 7.4.
The test system of series [4] is human hepatoma cell line (HepG2). Put plainly: in vitro. It is filed as cell-based. The settings on record: preliminary cytotoxicity, HepG2. In short, it runs like this: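 Cells grown in MEM with 10% FBS at 37 °C, 5% CO2, and seeded at 1 × 10^4/well. After treatment, viability read by WST-1 over 3 h incubation, absorbance at 440 nm.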

`CC(=O)Nc1ccccc1C(F)(F)C(=O)NCC[C@@H]1C[C@H](CC(=O)OC(C)(C)C)OC(C)(C)O1` [Compound 13a, tert-Butyl 2-((4R,6R)-6-(2-(2-(2-acetamidophenyl)-2,2-difluoroacetamido)ethyl)-2,2-dimethyl-1,3-dioxan-4-yl)acetate]: the CC50 at 24 h in “in vitro” is over 500 µM.

As for `CC(=O)Nc1ccc(C)cc1C(F)(F)C(=O)NCC[C@@H]1C[C@H](CC(=O)OC(C)(C)C)OC(C)(C)O1` [Compound 13b, tert-Butyl 2-((4R,6R)-6-(2-(2-(2-acetamido-5-methylphenyl)-2,2-difluoroacetamido)ethyl)-2,2-dimethyl-1,3-dioxan-4-yl)acetate], the CC50 at 30 min in series [1], in series [2] and in series [3] was over 1500 µM throughout. Further, the “lack of toxic events up to” value in series [4] is reported as “up to 400 μM”. For the same molecule, in “in vitro”, the CC50 at 24 h was over 500 µM.

Take `CC(=O)Nc1ccc(Cl)cc1C(F)(F)C(=O)NCC[C@@H]1C[C@H](CC(=O)OC(C)(C)C)OC(C)(C)O1` [Compound 13c, tert-Butyl 2-((4R,6R)-6-(2-(2-(2-acetamido-5-chlorophenyl)-2,2-difluoroacetamido)ethyl)-2,2-dimethyl-1,3-dioxan-4-yl)acetate]: the “lack of toxic events up to” value in series [4] is “up to 400 μM”. The CC50 at 24 h in the series “in vitro” is over 500 µM.

`CC(=O)Nc1ccc(Br)cc1C(F)(F)C(=O)NCC[C@@H]1C[C@H](CC(=O)OC(C)(C)C)OC(C)(C)O1` [Compound 13d, tert-Butyl 2-((4R,6R)-6-(2-(2-(2-acetamido-5-bromophenyl)-2,2-difluoroacetamido)ethyl)-2,2-dimethyl-1,3-dioxan-4-yl)acetate]: the results for the CC50 at 30 min in series [1], in series [2] and in series [3] were 1260 ± 46.8 µM, 120 ± 14.1 µM and 1490 ± 36.5 µM, respectively. In addition, the CC50 at 24 h in the series “in vitro” is over 500 µM.
